Test results taken from US8022206B2 (OSI Pharmaceuticals, LLC, priority 2008, dated 2011).

Legend:
MET (human) = MET (human) (Homo sapiens, UniProt P08581); test: MET (human) AlphaScreen kinase assay, Km of ATP; type: biochemical; conditions: AlphaScreen, Km of ATP; read-out: Met biochemical IC50
How it was run: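 Human MET at lot-optimised concentration in 50 mM Tris pH 7.4 buffer with 1 mM DTT, compound at 1% DMSO final; enzyme starts the reaction, 60 min at RT.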

RON (human) = RON (human) (Homo sapiens, UniProt Q04912); test: RON (human) AlphaScreen kinase assay, Km of ATP; type: biochemical; conditions: AlphaScreen, Km of ATP; read-out: RON biochemical IC50
How it was run: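 Detection used PT66 AlphaScreen beads added in Tris pH 7.5/NaCl/EDTA/BSA buffer, read after 1 h incubation. Vehicle-only DMSO wells served as controls.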

Sequence of MET (human) (P08581 25-1390): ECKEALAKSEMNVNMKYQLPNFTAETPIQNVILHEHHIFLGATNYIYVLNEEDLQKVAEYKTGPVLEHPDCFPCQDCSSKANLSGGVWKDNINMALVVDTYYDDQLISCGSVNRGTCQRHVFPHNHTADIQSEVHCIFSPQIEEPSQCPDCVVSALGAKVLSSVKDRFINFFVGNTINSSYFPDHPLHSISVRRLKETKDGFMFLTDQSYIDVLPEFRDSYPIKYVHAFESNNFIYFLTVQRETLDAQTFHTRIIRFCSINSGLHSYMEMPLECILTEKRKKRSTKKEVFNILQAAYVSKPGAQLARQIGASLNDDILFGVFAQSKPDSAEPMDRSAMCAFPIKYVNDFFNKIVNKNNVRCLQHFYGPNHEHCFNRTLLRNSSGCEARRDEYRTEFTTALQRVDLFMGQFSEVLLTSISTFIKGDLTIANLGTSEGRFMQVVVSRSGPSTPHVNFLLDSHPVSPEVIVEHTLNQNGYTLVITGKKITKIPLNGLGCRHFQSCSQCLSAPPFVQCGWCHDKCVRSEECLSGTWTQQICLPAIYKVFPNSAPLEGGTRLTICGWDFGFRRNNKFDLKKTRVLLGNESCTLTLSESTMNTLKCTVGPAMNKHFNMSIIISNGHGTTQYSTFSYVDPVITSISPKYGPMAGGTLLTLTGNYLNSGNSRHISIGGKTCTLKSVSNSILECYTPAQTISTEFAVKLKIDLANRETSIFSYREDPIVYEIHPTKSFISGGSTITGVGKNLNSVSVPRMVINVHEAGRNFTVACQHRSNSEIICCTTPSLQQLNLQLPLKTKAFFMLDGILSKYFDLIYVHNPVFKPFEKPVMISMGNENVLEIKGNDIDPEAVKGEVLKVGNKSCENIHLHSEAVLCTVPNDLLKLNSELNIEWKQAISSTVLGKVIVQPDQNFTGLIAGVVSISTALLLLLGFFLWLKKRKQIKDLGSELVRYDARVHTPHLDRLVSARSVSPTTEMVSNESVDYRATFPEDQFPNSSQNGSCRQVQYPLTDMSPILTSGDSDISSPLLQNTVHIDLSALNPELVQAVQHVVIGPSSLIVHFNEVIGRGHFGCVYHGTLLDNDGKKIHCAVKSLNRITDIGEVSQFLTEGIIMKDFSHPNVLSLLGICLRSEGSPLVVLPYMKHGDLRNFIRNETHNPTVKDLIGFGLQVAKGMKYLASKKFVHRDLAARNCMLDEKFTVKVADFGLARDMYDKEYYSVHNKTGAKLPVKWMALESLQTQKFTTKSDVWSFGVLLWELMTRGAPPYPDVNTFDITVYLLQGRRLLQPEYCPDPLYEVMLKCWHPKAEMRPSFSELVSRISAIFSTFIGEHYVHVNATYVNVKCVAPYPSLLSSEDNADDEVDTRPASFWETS
Sequence of RON (human) (Q04912 25-1400): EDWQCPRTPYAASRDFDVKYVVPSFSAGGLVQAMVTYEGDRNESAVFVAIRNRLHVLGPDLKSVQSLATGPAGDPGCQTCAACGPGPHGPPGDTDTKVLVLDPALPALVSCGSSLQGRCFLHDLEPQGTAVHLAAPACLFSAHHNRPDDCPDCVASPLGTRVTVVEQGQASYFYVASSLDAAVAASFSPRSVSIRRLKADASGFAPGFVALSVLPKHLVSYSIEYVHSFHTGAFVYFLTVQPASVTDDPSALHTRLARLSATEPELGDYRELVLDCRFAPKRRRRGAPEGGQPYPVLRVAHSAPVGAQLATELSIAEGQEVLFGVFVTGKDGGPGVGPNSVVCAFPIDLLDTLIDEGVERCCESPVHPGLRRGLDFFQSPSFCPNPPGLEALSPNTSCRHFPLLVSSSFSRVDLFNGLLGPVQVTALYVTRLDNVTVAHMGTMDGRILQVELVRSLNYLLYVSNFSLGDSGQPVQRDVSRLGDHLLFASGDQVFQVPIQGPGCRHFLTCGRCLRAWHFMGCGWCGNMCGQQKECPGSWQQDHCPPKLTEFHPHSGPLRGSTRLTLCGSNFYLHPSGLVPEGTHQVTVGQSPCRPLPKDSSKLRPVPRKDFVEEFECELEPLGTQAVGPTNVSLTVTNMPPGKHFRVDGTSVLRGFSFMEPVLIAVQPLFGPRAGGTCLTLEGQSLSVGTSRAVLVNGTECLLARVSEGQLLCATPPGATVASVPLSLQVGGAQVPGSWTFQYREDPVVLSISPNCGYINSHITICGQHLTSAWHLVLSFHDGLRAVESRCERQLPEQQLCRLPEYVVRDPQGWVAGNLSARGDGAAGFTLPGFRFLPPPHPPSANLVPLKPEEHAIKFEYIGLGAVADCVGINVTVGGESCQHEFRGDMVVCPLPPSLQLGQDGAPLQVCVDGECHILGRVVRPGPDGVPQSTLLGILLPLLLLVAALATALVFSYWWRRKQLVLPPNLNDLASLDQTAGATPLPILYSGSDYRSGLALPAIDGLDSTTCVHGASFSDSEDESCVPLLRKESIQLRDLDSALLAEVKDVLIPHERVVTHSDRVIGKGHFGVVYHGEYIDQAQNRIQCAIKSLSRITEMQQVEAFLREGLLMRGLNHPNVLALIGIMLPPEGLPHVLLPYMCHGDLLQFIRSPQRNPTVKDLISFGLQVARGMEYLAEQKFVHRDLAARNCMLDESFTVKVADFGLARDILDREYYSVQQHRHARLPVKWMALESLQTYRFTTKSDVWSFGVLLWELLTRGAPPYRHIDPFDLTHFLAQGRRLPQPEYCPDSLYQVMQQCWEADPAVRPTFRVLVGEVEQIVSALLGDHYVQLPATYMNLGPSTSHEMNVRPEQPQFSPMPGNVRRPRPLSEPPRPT

SMILES | IC50 (MET (human)) | IC50 (RON (human))
C[C@H](O)C(=O)N1CC=C(c2coc3c(O[C@H](C)c4c(Cl)ccc(F)c4Cl)c(N)ncc23)CC1 [Example 227, (S)-1-(4-{6-Amino-7-[(R)-1-(2,6-dichloro-3-fluorophenyl)ethoxy]-furo[3,2-c]pyridin-3-yl}-3,6-dihydro-2H-pyridin-1-yl)-2-hydroxypropan-1-one] | < 500 nM | 500 to 5000 nM
Cn1cc(-c2ccc3nnc(COc4c(N)ncc5ccoc45)n3n2)cn1 [Example 472, 7-{[6-(1-methyl-1H-pyrazol-4-yl) [1,2,4]triazolo[4,3-b]pyridazin-3-yl]methoxy}furo[3,2-c]pyridin-6-amine] | 500 to 5000 nM | 5000 to 20000 nM
C[C@@H](Oc1c(N)ncc2c(C3=CCN(C4CN(C(N)=O)C4)CC3)coc12)c1c(Cl)ccc(F)c1Cl [Example 324, 3-(4-{6-Amino-7-[(R)-1-(2,6-dichloro-3-fluorophenyl)ethoxy]furo[3,2-c]pyridin-3-yl}-3,6-dihydro-2H-pyridin-1-yl)azetidine-1-carboxamide] | < 500 nM | < 500 nM
C[C@@H](Oc1c(N)ncc2c(-c3ccc(CN(C)C)s3)coc12)c1c(Cl)ccc(F)c1Cl [Example 214, 7-[(R)-1-(2,6-Dichloro-3-fluorophenyl)ethoxy]-3-(5-dimethyl-aminomethylthiophen-2-yl)-furo[3,2-c]pyridin-6-ylamine] | < 500 nM | < 500 nM
COc1cccc(CC(C)Oc2c(N)ncc3c(-c4cnn(C5CCNCC5)c4)coc23)c1 (stereo not shown) [Example 437, 7-[2-(3-Methoxyphenyl)-1-methylethoxy]-3-(1-piperidin-4-yl-1H-pyrazol-4-yl)furo[3,2-c]pyridin-6-ylamine] | < 500 nM | < 500 nM
CC(=O)Nc1ccc(-c2coc3c(O[C@H](C)c4c(Cl)ccc(F)c4Cl)c(N)ncc23)cn1 [Example 120, N-(5-{6-Amino-7-[(R)-1-(2,6-dichloro-3-fluorophenyl)ethoxy]furo[3,2-c]pyridin-3-yl}pyridin-2-yl)acetamide] | 500 to 5000 nM | 500 to 5000 nM
Cc1cscc1-c1coc2c(O[C@H](C)c3c(Cl)ccc(F)c3Cl)c(N)ncc12 [Example 111, 7-[(R)-1-(2,6-Dichloro-3-fluorophenyl)ethoxy]-3-(4-methylthiophen-3-yl)furo[3,2-c]pyridin-6-ylamine] | 500 to 5000 nM | 500 to 5000 nM
C[C@@H](Oc1c(N)ncc2c(C3=CCN(C(=O)[C@H]4CCNC4)CC3)coc12)c1c(Cl)ccc(F)c1Cl [Example 237, (4-{6-Amino-7-[(R)-1-(2,6-dichloro-3-fluorophenyl)ethoxy]-furo[3,2-c]pyridin-3-yl}-3,6-dihydro-2H-pyridin-1-yl)-(S)-pyrrolidin-3-ylmethanone] | < 500 nM | < 500 nM
C[C@@H](Oc1c(N)ncc2c(-c3csc(CN)c3)coc12)c1c(Cl)ccc(F)c1Cl [Example 310, 3-(5-Aminomethylthiophen-3-yl)-7-[(R)-1-(2,6-dichloro-3-fluoro-phenyl)ethoxy]furo[3,2-c]pyridin-6-ylamine] | < 500 nM | < 500 nM
CC(Oc1c(N)ncc2c(-c3cnn(C4CCNCC4)c3)coc12)c1cccc(Br)c1 (stereo not shown) [Example 387, 7-[1-(3-Bromophenyl)ethoxy]-3-(1-piperidin-4-yl-1H-pyrazol-4-yl)furo[3,2-c]pyridin-6-ylamine] | < 500 nM | 500 to 5000 nM
COc1ncc(-c2coc3c(O[C@H](C)c4c(Cl)ccc(F)c4Cl)c(N)ncc23)cn1 [Example 93, 7-[(R)-1-(2,6-Dichloro-3-fluorophenyl)ethoxy]-3-(2-methoxypyrimidin-5-yl)furo[3,2-c]pyridin-6-ylamine] | 500 to 5000 nM | 5000 to 20000 nM
CC(Oc1c(N)ncc2c(-c3cnn(C4CCNCC4)c3)coc12)c1c(F)cccc1Cl (stereo not shown) [Example 401, 7-[1-(2-Chloro-6-fluorophenyl)ethoxy]-3-(1-piperidin-4-yl-1H-pyrazol-4-yl)furo[3,2-c]pyridin-6-ylamine] | < 500 nM | 500 to 5000 nM
C[C@@H](Oc1c(N)ncc2c(C3=CCN(C(=O)N4CC5CC4CO5)CC3)coc12)c1c(Cl)ccc(F)c1Cl (stereo partly drawn) [Example 223, (4-{6-Amino-7-[(R)-1-(2,6-dichloro-3-fluorophenyl)ethoxy]-furo[3,2-c]pyridin-3-yl}-3,6-dihydro-2H-pyridin-1-yl)-(2-oxa-5-azabicyclo[2.2.1]hept-5-yl)methanone] | 500 to 5000 nM | 500 to 5000 nM
CCN1CCN(C(=O)N2CC=C(c3coc4c(O[C@H](C)c5c(Cl)ccc(F)c5Cl)c(N)ncc34)CC2)CC1 [Example 27, (4-{6-Amino-7-[(R)-1-(2,6-dichloro-3-fluorophenyl)-ethoxy]-furo[3,2-c]pyridin-3-yl}-3,6-dihydro-2H-pyridin-1-yl)-(4-ethylpiperazin-1-yl)-methanone] | < 500 nM | < 500 nM
C[C@@H](Oc1c(N)ncc2c(-c3ccc(C(=O)N4CCCC4)cc3)coc12)c1c(Cl)ccc(F)c1Cl [Example 84, (4-{6-Amino-7-[(R)-1-(2,6-dichloro-3-fluorophenyl)ethoxy]-furo[3,2-c]pyridin-3-yl}phenyl)pyrrolidin-1-ylmethanone] | < 500 nM | 500 to 5000 nM
CC(Cc1ccc(Cl)c(Cl)c1)Oc1c(N)ncc2c(-c3cnn(C4CCNCC4)c3)coc12 (stereo not shown) [Example 428, 7-[2-(3,4-Dichlorophenyl)-1-methylethoxy]-3-(1-piperidin-4-yl-1H-pyrazol-4-yl)furo[3,2-c]pyridin-6-ylamine] | 500 to 5000 nM | < 500 nM
CC(Oc1c(N)ncc2c(-c3cnn(C4CCNCC4)c3)coc12)c1ccccc1F (stereo not shown) [Example 374, 7-[1-(2-Fluorophenyl)ethoxy]-3-(1-piperidin-4-yl-1H-pyrazol-4-yl)furo[3,2-c]pyridin-6-ylamine] | 500 to 5000 nM | 500 to 5000 nM
C[C@@H](Oc1c(N)ncc2c(-c3cncnc3)coc12)c1c(Cl)ccc(F)c1Cl [Example 112, 7-[(R)-1-(2,6-Dichloro-3-fluorophenyl)ethoxy]-3-pyrimidin-5-ylfuro[3,2-c]pyridin-6-ylamine] | 500 to 5000 nM | 500 to 5000 nM

Next, values leading:

IC50 (MET (human)) | IC50 (RON (human)) | SMILES
500 to 5000 nM | 500 to 5000 nM | C[C@@H](Oc1c(N)ncc2c(-c3ccc(CN4CCOCC4)cc3)coc12)c1c(Cl)ccc(F)c1Cl [Example 85, 7-[(R)-1-(2,6-Dichloro-3-fluorophenyl)ethoxy]-3-(4-morpholin-4-ylmethylphenyl)furo[3,2-c]pyridin-6-ylamine]
< 500 nM | < 500 nM | C[C@@H](Oc1c(N)ncc2c(C3=CCN(C(=O)[C@@H]4CCCCN4)CC3)coc12)c1c(Cl)ccc(F)c1Cl [Example 238, (4-{6-Amino-7-[(R)-1-(2,6-dichloro-3-fluorophenyl)ethoxy]-furo[3,2-c]pyridin-3-yl}-3,6-dihydro-2H-pyridin-1-yl)-(S)-piperidin-2-ylmethanone]
500 to 5000 nM | 500 to 5000 nM | C[C@@H](Oc1c(N)ncc2c(-c3csc(C(N)=O)c3)coc12)c1c(Cl)ccc(F)c1Cl [Example 318, 4-{6-Amino-7-[(R)-1-(2,6-dichloro-3-fluorophenyl)ethoxy]furo[3,2-c]pyridin-3-yl}thiophene-2-carboxamide]
500 to 5000 nM | 500 to 5000 nM | Cc1ccc(C(C)Oc2c(N)ncc3c(-c4cnn(C5CCNCC5)c4)coc23)cc1 (stereo not shown) [Example 344, 3-(1-Piperidin-4-yl-1H-pyrazol-4-yl)-7-(1-p-tolylethoxy)furo[3,2-c]pyridin-6-ylamine]
500 to 5000 nM | 500 to 5000 nM | Cc1cccc(C(C)Oc2c(N)ncc3c(-c4cnn(C5CCNCC5)c4)coc23)c1 (stereo not shown) [Example 343, 3-(1-Piperidin-4-yl-1H-pyrazol-4-yl)-7-(1-m-tolylethoxy)furo[3,2-c]pyridin-6-ylamine]
< 500 nM | 500 to 5000 nM | CC(Oc1c(N)ncc2c(-c3cnn(C4CCNCC4)c3)coc12)c1c(F)cccc1F (stereo not shown) [Example 383, 7-[1-(2,6-Difluorophenyl)ethoxy]-3-(1-piperidin-4-yl-1H-pyrazol-4-yl)furo[3,2-c]pyridin-6-ylamine]
500 to 5000 nM | 500 to 5000 nM | C[C@@H](Oc1c(N)ncc2c(-c3cscn3)coc12)c1c(Cl)ccc(F)c1Cl [Example 136, 7-[(R)-1-(2,6-Dichloro-3-fluorophenyl)-ethoxy]-3-thiazol-4-ylfuro[3,2-c]pyridin-6-ylamine]
500 to 5000 nM | 500 to 5000 nM | CN/C(=N/C#N)N1CC=C(c2coc3c(O[C@H](C)c4c(Cl)ccc(F)c4Cl)c(N)ncc23)CC1 [Example 198, 4-{6-Amino-7-[(R)-1-(2,6-dichloro-3-fluorophenyl)ethoxy]-furo[3,2-c]pyridin-3-yl}-N-cyano-N′-methyl-3,6-dihydro-2H-pyridine-1-carboxamidine]
< 500 nM | 500 to 5000 nM | C[C@@H](Oc1c(N)ncc2c(-c3ccc(C(=O)NCC(C)(C)CN(C)C)cc3)coc12)c1c(Cl)ccc(F)c1Cl [Example 298, 4-{6-Amino-7-[(R)-1-(2,6-dichloro-3-fluorophenyl)ethoxy]furo[3,2-c]pyridin-3-yl}-N-(3-dimethylamino-2,2-dimethylpropyl)benzamide]
500 to 5000 nM | 500 to 5000 nM | Cc1cccc(C)c1C(C)Oc1c(N)ncc2c(-c3cnn(C4CCNCC4)c3)coc12 (stereo not shown) [Example 402, 7-[1-(2,6-Dimethylphenyl)ethoxy]-3-(1-piperidin-4-yl-1H-pyrazol-4-yl)furo[3,2-c]pyridin-6-ylamine]
< 500 nM | < 500 nM | C[C@@H](Oc1c(N)ncc2c(-c3ccc(CN4CCCC4)s3)coc12)c1c(Cl)ccc(F)c1Cl [Example 213, 7-[(R)-1-(2,6-Dichloro-3-fluorophenyl)ethoxy]-3-(5-pyrrolidin-1-ylmethylthiophen-2-yl)-furo[3,2-c]pyridin-6-ylamine]
